Measurements reported in US10668039B2, “Methods for treatment of adenoid cystic carcinoma” (THE CHILDREN'S MEDICAL CENTER CORPORATION, priority 2016, dated 2020).
“Also recorded” adds a separate entry of the source.

What was measured:
ACC PDX models = assay: ATRA comparison TGI studies in ACC PDX models; assay type: in vivo; conditions: ATRA 8 mg/kg to 32 mg/kg; tamibarotene 2 mg/kg
Protocol: The TGI studies in ACC PDX models were repeated in order to compare the original ATRA dose (3 or 4 mg/ml) against a more physiologically relevant dose of ATRA (8 mg/kg) and an alternative retinoid Tamibarotene (originally developed for ATRA-resistant cancer settings, approved in Japan and currently in development at Syros Pharmaceuticals).

U937 cells = assay: U937 proliferation, CellTiter-Glo; assay type: cell-based, human; conditions: 2 days (48 hours) of treatment, dose response
Protocol: Cell culture: U937 cells were grown in RPMI 1640 (Life Technologies), 10% heat inactivated FBS, and 1% Penicillin-Streptomycin (Invitrogen). CellTiter-Glo Luminescent Cell Viability Assay (Promega) was performed as per manufacturer's instructions. Cell viability was assessed at day 2.
Proliferation assays: U937 cells (ATCC) were grown in RPMI 1640 medium (Gibco) supplemented with 10% FBS and 1% Penicillin-Streptomycin (Gibco) and cultured in a 37° C. incubator with 5% CO2. U937 cells are listed in the database of commonly misidentified cell lines maintained by ICLAC, but authentic stocks are available and certified by ATCC based on DNA short-tandem repeat analysis. […] U937 cells were tested every other week for mycoplasma contamination using the MycoAlert Mycoplasma Detection Kit (Lonza) and consistently confirmed to be negative. Cells were seeded at an initial density of 1,150 cells/well (96 well plate) with chemicals at the concentrations indicated. After 48 hours, cell proliferation rates were determined using CellTiter-Glo (Promega) luminescent cell viability assay as per the manufacturer's instructions.

Ki-67 = assay: Immunohistochemistry of ACC primagrafts, Ki-67; assay type: in vivo, nude mice; conditions: ACC x6, x9, x11 primagrafts at conclusion of long-term studies
Description: (§1) Primagraft experiments: For in vivo drug testing, ACC tumor fragments from host animals were implanted subcutaneously into the flank of nude mice (CRL: ATH/NU). Once tumors reached 125-250 mm3, mice were randomized to receive vehicle or drug diluted in 10:90 DMSO:10% hydroxypropyl-beta-cyclodextrin orally until controls reached a tumor volume endpoint of 1-2 cm3 (4-9 mice per group: x5M1 and x6, 4 treated vs. 9 vehicle controls; x9, 4 treated vs. 5 vehicle controls; x11, 5 treated vs. 8 vehicle controls). Mice were treated with ATRA (ACC x6 and x11: 4 mg/mL, 0.2 mL flat dose; ACC×9: 3 mg/mL, 0.2 mL flat dose) or isotretinoin (30 mg/mL, 0.2 mL flat dose). Tumor growth was monitored and mice weighed twice weekly and studies ended when final group reached tumor volume endpoint. No statistical methods were employed to determine the sample size, and no blinding of investigators was performed. […]
Immunohistochemistry: Sectioning and staining was carried out by the Dana-Farber/Harvard Cancer Center Specialized Histopathology Core using standard procedures on ACC x6, x9, and x11 samples (from long-term tumor growth inhibition studies). […] Primary antibody was detected using Bond Polymer Refine Detection kit. […] Images (>200 nuclei each) from three different individual primagrafts were blindly quantitated.

RARA and RARG = assay: RNA-seq of short-term ACC x9 primagrafts, RARA and RARG; assay type: in vivo, human; conditions: 3 days, n=3, p<0.05
Description: as §1, with “performed. After long-term tumor growth inhibition studies were completed, the ATRA treated mice stopped receiving treatment and were maintained longer as indicated to monitor tumor maintenance after treatment cessation. For long-term tumor growth inhibition studies, ACC x6, x9, and x11 models were used and primagrafts collected at the completion of the study. Short-term kinetics studies were also undertaken with ACC x9 and x5M1 primagrafts involving 3 day ATRA treatments.” for “performed.”

[1] = tested on: mpeg1:mCherry positive cells; assay: Confocal imaging of CHT, mpeg1:mCherry positive cells; assay type: in vivo, zebrafish; conditions: 10 μM, treated 48-72 hpf, imaged at 72 hpf
Protocol: Confocal imaging: Double transgenic c-myb:GFP; lyz:dsRed or c-myb:GFP; mpeg1:mCherry embryos from the same clutch were treated between 48-72 hpf (n=4 biological replicates per treatment group) with 10 μM ATRA diluted in E3. Live 72 hpf embryos were embedded in 0.8% low-melting point agarose containing 0.04 mg/mL Tricaine and imaged on a Nikon Eclipe Ti microscope with 20× Plan-Apo DIC N.A. 0.75. CHT cells were counted in Z-stack image projections processed on Imaris software (Bitplane).

runx1 = assay: In situ hybridization of whole embryos, runx1; assay type: in vivo, zebrafish; conditions: 10 μM, treated 48-72 hpf, fixed at 72 hpf
Protocol: In situ hybridization: Wildtype AB embryos from the same clutch were treated between 48-72 hpf with 10 μM retinoic acid agonists diluted in E3, fixed at 72 hpf in 4% paraformaldehyde, and processed as previously described. CHT staining in the embryos was blindly scored as high, medium, or low, and summed across 3 independent experiments as done previously. Representative images were acquired on a Nikon ZMS 18 microscope.

CC(C=CC1=C(C)CCCC1(C)C)=CC=C/C(C)=C/C(=O)O [ATRA, (E)-3,7-dimethyl-9-(2,6,6-trimethyl-1-cyclo-hexen-1-yl)-2,4,6,8-nonatetraenoic acid]
tumor growth inhibition in the PDX studies (ACC PDX models): showed tumor growth inhibition
U937 proliferation (CellTiter-Glo) (U937 cells): inhibited
proliferation (Ki-67 positive nuclei) (Ki-67): no significant effect
increase of RARA and RARG gene levels (RARA and RARG): ~40%
mpeg1:mCherry+ cells in the CHT [1]: no significant difference; also recorded: no significant effect
runx1 expression (staining) in the CHT (runx1): significant decrease; also recorded: decreased staining
